The values that follow are results of earlier work, collected in patent US20250186525A1, “DECAFFEINATED YERBA MATE EXTRACT, ANTI-OBESITY COMPOSITION, DECAFFEINATION METHOD AND METHOD FOR THE PRODUCTION OF A YERBA MATE EXTRACT” (priority 2022, published 2025).

One series concerns fat accumulation. The conditions noted are these: cell and animal tests.
In a further series the test system is mice. The conditions noted are these: isolated from a hot water extract of yerba mate.

Turning to `Cn1c(=O)c2c(ncn2C)n(C)c1=O` [caffeine], the “inhibitory effect on fat accumulation” value in the series with fat accumulation was “showed an inhibitory effect”. In the series on fatty acid synthase, the “gene expression of fatty acid synthase” value was “reduced”.

For the molecule `O=C(/C=C/c1ccc(O)c(O)c1)O[C@@H]1C[C@](O)(C(=O)O)C[C@@H](O)[C@H]1O` [chlorogenic acid], the food intake result in the series on mice is on record as “significantly reduces”.

`O=C(/C=C/c1ccc(O)c(O)c1)O[C@@H]1CC(O)(C(=O)O)C[C@@H](OC(=O)/C=C/c2ccc(O)c(O)c2)C1O` (stereo partly shown) [3,5-dicaffeoylquinic acid]: the food intake result in the series with mice is “significantly reduces”.
